Experiments:
[1] = target: full-length human LSD1 (Homo sapiens (Human), UniProt O60341); experiment: In vitro enzyme inhibition assay LSD-1 (TR-FRET); format: biochemical; details: H3K4me1-biotin peptide
Description: This assay determines the ability of a test compound to inhibit LSD1 demethylase activity.
The enzymatic assay of LSD1 activity is based on Time Resolved-Fluorescence Resonance Energy Transfer (TR-FRET) detection.
Plates were read by EnVision Multilabel Reader in TR-FRET mode (excitation at 320 nm, emission at 615 nm and 665 nm) after 1 hour incubation at room temperature.
The ability of the compounds disclosed herein to inhibit LSD1 activity was quantified and the respective IC50 value was determined.

[2] = system: CD11b expression in THP-1 (AML) cells; experiment: LSD1 CD11b cellular assay (flow cytometry); format: cell-based; details: THP-1 cells, 4 days
Description: To analyze LSD1 inhibitor efficacy in cells, a CDL11b flow cytometry assay was performed. LSD1 inhibition induces CD11b expression in THP-1 (AML) cells which can be measured by flow cytometry. […] LSD 1 test compounds were serially diluted in DMSO. The dilutions were added to each well accordingly to a final concentration of 0.2% DMSO. The cells were incubated at 37 degrees Celsius in 5% CO2 for 4 days. 250 μL of each well was transferred to a well in a 96 well round bottom plate. The plate was centrifuged at 1200 rpm at 4 degrees Celsius in a Beckman Coulter Alegra 6KR centrifuge for 5 minutes. The media was removed leaving the cells at the bottom of the wells. The cells were washed in 100 μL cold HBSS (Hank's Balanced Salt Solution) plus 2% BSA (Bovine Serum Albumin) solution and centrifuged at 1200 rpm at 4 degrees Celsius for 5 minutes. The wash was removed. […] The cells were centrifuged and washed two times in 100 μl HBSS plus 2% BSA. After the final spin the cells were resuspended in 100 μL HBSS plus 2% BSA containing 1 ug/mL DAPI (4′,6-diamidino-2-phenylindole). The cells were then analyzed by flow cytometry in a BD FACSAria machine. Cells were analyzed for CD11b expression. The percent of CD11b expressing cells for each inhibitor concentration was used to determine an IC50 curve for each compound analyzed.

| SMILES | IC50 [1] [nM] | IC50 ([2]; Homo sapiens, 96 h) [nM] | IC50 [2] [nM] |
| --- | --- | --- | --- |
| Cc1ccc(-c2c(-c3ccc(C#N)c(F)c3)cc(C(=O)N3CCC[C@@H](N)C3)n2CCCO)cc1 [Example 9] | < 100 | < 100 | – |
| COc1ccc(-n2c(-c3ccc(C#N)c(F)c3)nc(C(=O)N[C@@H]3CCCNC3)c2Cl)cc1F [Example 84, 5-Chloro-2-(4-cyano-3-fluorophenyl)-1-(3-fluoro-4-methoxyphenyl)-N-[(3R)-piperidin-3-yl]imidazole-4-carboxamide] | < 100 | < 100 | – |
| COc1ccc(-c2c(-c3ccc(C#N)c(F)c3)cc(C(=O)N3CCC[C@@H](N)C3)n2CCCC(=O)O)cc1 [Example 41, 4-{5-[((3R)-3-aminopiperidyl)carbonyl]-3-(4-cyano-3-fluorophenyl)-2-(4-methoxyphenyl)pyrrolyl}butanoic acid] | – | 100 to 1000 | – |
| Cc1c(C(=O)N2CC[C@H](N)C2)nc(-c2ccc(C#N)c(F)c2)n1-c1cc(F)c2nn(C)cc2c1 [Example 50, 4-[4-[(3S)-3-Aminopyrrolidine-1-carbonyl]-1-(7-fluoro-2-methylindazol-5-yl)-5-methylimidazol-2-yl]-2-fluorobenzonitrile] | < 100 | < 100 | – |
| Cn1ncc2cc(-n3cc(C(=O)N4CC[C@H](N)C4)nc3-c3ccc(C#N)c(F)c3)ccc21 [Example 28, 4-[4-[(3S)-3-aminopyrrolidine-1-carbonyl]-1-(1-methylindazol-5-yl)imidazol-2-yl]-2-fluorobenzonitrile] | < 100 | – | – |
| Cn1cc2cc(-c3c(-c4ccc(C#N)c(F)c4)cc(C(=O)NCC4CCNC4)n3C)ccc2n1 (stereo in doubt) [Example 33, N-[((3S)pyrrolidin-3-yl)methyl][4-(4-cyano-3-fluorophenyl)-1-methyl-5-(2-methyl(2H-indazol-5-yl))pyrrol-2-yl]carboxamide] | – | – | < 100 |
| CN1CC[C@H](NC(=O)c2cn(-c3ccc4nn(C)c(Cl)c4c3)c(-c3ccc(C#N)c(F)c3)n2)C1 [Example 107, 1-(3-Chloro-2-methylindazol-5-yl)-2-(4-cyano-3-fluorophenyl)-N-[(3S)-1-methylpyrrolidin-3-yl]imidazole-4-carboxamide] | < 100 | – | – |
| COc1ccc(-c2c(-c3ccc(C#N)c(F)c3)cc(C(=O)N3CCC[C@@H](N)C3)n2CC(N)=O)cc1 [Example 37, (R)-2-(5-(3-aminopiperidine-1-carbonyl)-3-(4-cyano-3-fluorophenyl)-2-(4-methoxyphenyl)-1H-pyrrol-1-yl)acetamide] | < 100 | – | – |
| Cc1c(C(=O)N[C@@H]2CCN(C)C2)nc(-c2ccc(C#N)c(F)c2)n1-c1ccc2nn(C)cc2c1 [Example 108, 2-(4-Cyano-3-fluorophenyl)-5-methyl-1-(2-methylindazol-5-yl)-N-[(3R)-1-methylpyrrolidin-3-yl]imidazole-4-carboxamide] | < 100 | – | – |
| Cn1cc2cc(-n3cc(C(=O)N4CC[C@H](N)C4)nc3-c3ccc(C#N)c(F)c3)ccc2n1 [Example 26, 4-[4-[(3S)-3-aminopyrrolidine-1-carbonyl]-1-(2-methylindazol-5-yl)imidazol-2-yl]-2-fluorobenzonitrile] | < 100 | – | – |
| Cc1c(C(=O)N[C@H]2CCN(C)C2)nc(-c2ccc(C#N)c(F)c2)n1-c1ccc2nn(C)cc2c1 [Example 109, 2-(4-Cyano-3-fluorophenyl)-5-methyl-1-(2-methylindazol-5-yl)-N-[(3S)-1-methylpyrrolidin-3-yl]imidazole-4-carboxamide] | < 100 | – | – |
| CN1CC[C@@H](NC(=O)c2cn(-c3ccc4nn(C)c(Cl)c4c3)c(-c3ccc(C#N)c(F)c3)n2)C1 [Example 106, 1-(3-Chloro-2-methylindazol-5-yl)-2-(4-cyano-3-fluorophenyl)-N-[(3R)-1-methylpyrrolidin-3-yl]imidazole-4-carboxamide] | < 100 | – | – |

Further lines, results first:

| IC50 [1] [nM] | IC50 ([2]; Homo sapiens, 96 h) [nM] | IC50 [2] [nM] | SMILES |
| --- | --- | --- | --- |
| < 100 | – | – | Cn1ncc2cc(-n3cc(C(=O)N4CCC[C@@H](N)C4)nc3-c3ccc(C#N)c(F)c3)ccc21 [Example 27, 4-[4-[(3R)-3-aminopiperidine-1-carbonyl]-1-(1-methylindazol-5-yl)imidazol-2-yl]-2-fluorobenzonitrile] |
| < 100 | < 100 | – | Cc1ccc(-c2c(-c3ccc(C#N)cc3)cc(C(=O)N3CCC[C@@H](N)C3)n2C)cn1 [Example 5, 4-[5-(3-(R)-amino-piperidine-1-carbonyl)-1-methyl-2-(6-methyl-pyridin-3-yl)-1H-pyrrol-3-yl]-benzonitrile] |
| < 100 | < 100 | – | Cc1c(C(=O)N[C@@H]2CCCN(C)C2)nc(-c2ccc(C#N)c(F)c2)n1-c1ccc2nn(C)c(Cl)c2c1 [Example 56, 1-(3-Chloro-2-methylindazol-5-yl)-2-(4-cyano-3-fluorophenyl)-5-methyl-N-[(3R)-1-methylpiperidin-3-yl]imidazole-4-carboxamide] |
| < 100 | < 100 | – | CN[C@H]1CCN(C(=O)c2nc(-c3ccc(C#N)c(F)c3)n(-c3cc(F)c4nn(C)cc4c3)c2C)C1 [Example 51, 2-Fluoro-4-[1-(7-fluoro-2-methylindazol-5-yl)-5-methyl-4-[(3S)-3-(methylamino)pyrrolidine-1-carbonyl]imidazol-2-yl]benzonitrile] |
| < 100 | 100 to 1000 | – | COc1ccc(-n2c(-c3ccc(C#N)c(F)c3)nc(C(=O)N3CC[C@@H](N)C3)c2C)cc1 [Example 13, 4-[4-[(3R)-3-aminopyrrolidine-1-carbonyl]-1-(4-methoxyphenyl)-5-methylimidazol-2-yl]-2-fluorobenzonitrile] |
| < 100 | < 100 | – | CN1CCC[C@@H](NC(=O)c2cn(-c3ccc4nn(C)c(Cl)c4c3)c(-c3ccc(C#N)c(F)c3)n2)C1 [Example 59, 1-(3-Chloro-2-methylindazol-5-yl)-2-(4-cyano-3-fluorophenyl)-N-[(3R)-1-methylpiperidin-3-yl]imidazole-4-carboxamide] |
| < 100 | < 100 | – | Cn1cc2cc(-c3c(-c4ccc(C#N)c(F)c4)cc(C(=O)N4CCC[C@@H](N)C4)n3C)ccc2n1 [Example 29, 4-{5-[((3R)-3-aminopiperidyl)carbonyl]-1-methyl-2-(2-methyl(2H-indazol-5-yl))pyrrol-3-yl}-2-fluorobenzenecarbonitrile] |
| < 100 | 100 to 1000 | – | CN(C)[C@H]1CCN(C(=O)c2nc(-c3ccc(C#N)c(F)c3)n(-c3ccc4nn(C)cc4c3)c2Cl)C1 [Example 100, 4-[5-Chloro-4-[(3S)-3-(dimethylamino)pyrrolidine-1-carbonyl]-1-(2-methylindazol-5-yl)imidazol-2-yl]-2-fluorobenzonitrile] |
| < 100 | < 100 | – | CN[C@@H]1CCCN(C(=O)c2nc(-c3ccc(C#N)c(F)c3)n(-c3ccc4nn(C)cc4c3)c2C)C1 [Example 98, 2-Fluoro-4-[5-methyl-4-[(3R)-3-(methylamino)piperidine-1-carbonyl]-1-(2-methylindazol-5-yl)imidazol-2-yl]benzonitrile] |
| < 100 | < 100 | – | Cc1c(C(=O)N[C@@H]2CCCN(C)C2)nc(-c2ccc(C#N)c(F)c2)n1-c1ccc2nn(C)cc2c1 [Example 60, 2-(4-Cyano-3-fluorophenyl)-5-methyl-1-(2-methylindazol-5-yl)-N-[(3R)-1-methylpiperidin-3-yl]imidazole-4-carboxamide] |
| < 100 | < 100 | – | CN(C)[C@H]1CCN(C(=O)c2nc(-c3ccc(C#N)c(F)c3)n(-c3ccc4nn(C)c(Cl)c4c3)c2Cl)C1 [Example 101, 4-[5-Chloro-1-(3-chloro-2-methylindazol-5-yl)-4-[(3S)-3-(dimethylamino)pyrrolidine-1-carbonyl]imidazol-2-yl]-2-fluorobenzonitrile] |
| < 100 | – | – | Cn1cc2cc(-n3cc(C(=O)N4CCC[C@@H](N)C4)nc3-c3ccc(C#N)c(F)c3)ccc2n1 [Example 25, 4-[4-[(3R)-3-aminopiperidine-1-carbonyl]-1-(2-methylindazol-5-yl)imidazol-2-yl]-2-fluorobenzonitrile] |
| < 100 | < 100 | – | CN[C@H]1CCCN(C(=O)c2cn(-c3ccc4nn(C)c(Cl)c4c3)c(-c3ccc(C#N)c(F)c3)n2)C1 [Example 116, 4-[1-(3-Chloro-2-methylindazol-5-yl)-4-[(3S)-3-(methylamino)piperidine-1-carbonyl]imidazol-2-yl]-2-fluorobenzonitrile] |
| < 100 | < 100 | – | Cc1c(C(=O)N2CCC3(CNC3)C2)nc(-c2ccc(C#N)c(F)c2)n1-c1ccc2nn(C)cc2c1 [Example 91, 4-[4-(2,6-Diazaspiro[3.4]octane-6-carbonyl)-5-methyl-1-(2-methylindazol-5-yl)imidazol-2-yl]-2-fluorobenzonitrile] |
| < 100 | < 100 | – | Cc1c(C(=O)N2CCC[C@@H](N)C2)nc(-c2ccc(C#N)c(F)c2)n1-c1cc2cn(C)nc2cc1F [Example 47, 4-[4-[(3R)-3-Aminopiperidine-1-carbonyl]-1-(6-fluoro-2-methylindazol-5-yl)-5-methylimidazol-2-yl]-2-fluorobenzonitrile] |

Reference: US10626103B2, “Inhibitor of lysine specific demethylase-1” (CELGENE QUANTICEL RESEARCH, INC., priority 2014, dated 2020)
